This passage reports IC50 results from patent US9273057B2 (Bristol-Myers Squibb Company, priority 2012, dated 2016).

Molecules are shown by their SMILES.

CK2A1 (CK2α/β), sequence (P68400 whole entry, species assumed): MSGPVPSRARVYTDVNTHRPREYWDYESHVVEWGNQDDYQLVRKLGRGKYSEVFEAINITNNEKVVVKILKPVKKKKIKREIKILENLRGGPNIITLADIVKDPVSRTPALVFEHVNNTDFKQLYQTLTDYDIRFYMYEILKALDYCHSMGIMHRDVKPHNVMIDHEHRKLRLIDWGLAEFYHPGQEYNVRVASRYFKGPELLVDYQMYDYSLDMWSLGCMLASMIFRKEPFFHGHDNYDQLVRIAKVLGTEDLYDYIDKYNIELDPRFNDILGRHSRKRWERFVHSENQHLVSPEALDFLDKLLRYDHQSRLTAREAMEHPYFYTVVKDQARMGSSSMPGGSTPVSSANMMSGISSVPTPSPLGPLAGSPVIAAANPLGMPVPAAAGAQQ
CK2A1 (CK2α/β), sequence (P67870 whole entry partner, species assumed): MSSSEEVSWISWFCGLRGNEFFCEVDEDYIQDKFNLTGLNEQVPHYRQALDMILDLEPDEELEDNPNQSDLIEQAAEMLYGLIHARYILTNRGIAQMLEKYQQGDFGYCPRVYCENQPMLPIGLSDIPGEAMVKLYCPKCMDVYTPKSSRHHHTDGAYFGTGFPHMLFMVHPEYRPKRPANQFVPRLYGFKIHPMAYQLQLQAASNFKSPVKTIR

The experiment concerns the target CK2A1 (CK2α/β) (Homo sapiens, UniProt P68400). Nature of the experiment: CK2 kinase assay, CK2A1 (CK2α/β). The class given is biochemical. As to conditions: Table A; read-out: CK2A1 (CK2α/β) (IC50).
Turning to `CCNc1nc(Nc2cc(C#N)cc(N3CC(C)[C@H](NC(=O)OC)C3)c2Cl)nn2c(C#N)cnc12` (stereo in doubt) [Example 336, methyl ((3S,4R)-1-(2-chloro-5-cyano-3-((7-cyano-4-(ethylamino)imidazo[2,1-f][1,2,4]triazin-2-yl)amino)phenyl)-4-methyl-3-pyrrolidinyl)carbamate], the IC50 was found to be 0.74 nM.
Take `CCNc1nc(Nc2cc(C#N)cc(N3CCN(CC(C)O)CC3)c2Cl)nn2c(C#N)cnc12` (stereo in doubt) [Example 429, 2-((2-chloro-5-cyano-3-(4-((2R)-2-hydroxypropyl)-1-piperazinyl)phenyl)amino)-4-(ethylamino)imidazo[2,1-f][1,2,4]triazine-7-carbonitrile]: the IC50 was determined as 1.28 nM.
To `N#Cc1cc(Nc2nc(NC3CC3)c3ncc(C#N)n3n2)c(Cl)c(N2CC[C@H]3[C@H](CCN3C3CS(=O)(=O)CC3O)C2)c1` (stereo in doubt) [Example 453, 2-((2-chloro-5-cyano-3-(1-((3S,4S)-4-hydroxy-1,1-dioxidotetrahydrothiophen-3-yl)hexahydro-1H-pyrrolo[3,2-c]pyridin-5(6H)-yl)phenyl)amino)-4-(cyclopropylamino)imidazo[2,1-f][1,2,4]triazine-7-carbonitrile] belongs 1.04 nM.
In the case of `COC(=O)N[C@H]1CCN(c2cc(C#N)cc(Nc3nc(NC4CC4)c4ncc(C#N)n4n3)c2Cl)CC1NC(C)C` (stereo in doubt) [Example 752, methyl N-[(3R,4S)-1-(2-chloro-5-cyano-3-{[7-cyano-4-(cyclopropylamino)imidazo [2,1-f][1,2,4]triazin-2-yl]amino}phenyl)-3-[(propan-2-yl)amino]piperidin-4-yl]carbamate], the IC50 came out at 4.93 nM.
For `COC(=O)N[C@H]1CCN(c2cc(C#N)cc(Nc3nc(NC4CC4)c4ncc(C#N)n4n3)c2Cl)CC1NCC(C)(C)O` (stereo in doubt) [Example 755, methyl N-[(3S,4S)-1-(2-chloro-5-cyano-3-{[7-cyano-4-(cyclopropylamino)imidazo [2,1-f][1,2,4]triazin-2-yl]amino}phenyl)-3-[(2-hydroxy-2-methylpropyl)amino]piperidin-4-yl]carbamate], the IC50 is 2.7 nM.
To `CCNc1nc(Nc2cc(C#N)cc(N3CC[C@@H](NC(=O)OC)C(NCC(C)(C)O)C3)c2Cl)nn2c(C#N)cnc12` (stereo in doubt) [Example 760, methyl N-[(3S,4R)-1-(2-chloro-5-cyano-3-{[7-cyano-4-(ethylamino)imidazo[2,1-f][1,2,4]triazin-2-yl]amino}phenyl)-3-[(2-hydroxy-2-methylpropyl)amino]piperidin-4-yl] carbamate] belongs 1.2 nM.
To `CCNc1nc(Nc2cc(C#N)cc(N3CCC(NC(=O)OC)C(N[C@@H](C)C(N)=O)C3)c2Cl)nn2c(C#N)cnc12` (stereo in doubt) [Example 762, methyl N-[(3R,4S)-3-[(1-carbamoylethyl)amino]-1-(2-chloro-5-cyano-3-{[7-cyano-4-(ethylamino)imidazo[2,1-f][1,2,4]triazin-2-yl]amino}phenyl)piperidin-4-yl]carbamate] belongs 2.1 nM.
To `COC(=O)NC1CCN(c2cc(C#N)cc(Nc3nc(NC4CC4)c4ncc(C#N)n4n3)c2Cl)C[C@@H]1N(C)CC#N` (stereo in doubt) [Example 764, methyl N-[(3S,4S)-1-(2-chloro-5-cyano-3-{[7-cyano-4-(cyclopropylamino)imidazo [2,1-f][1,2,4]triazin-2-yl]amino}phenyl)-3-[(cyanomethyl)(methyl)amino]piperidin-4-yl]carbamate] belongs 2 nM.
`COC(=O)NC1CCN(c2cc(C#N)cc(Nc3nc(NC4CC4)c4ncc(C#N)n4n3)c2Cl)C[C@H]1N(C)CC(C)(C)O` (stereo in doubt) [Example 767, methyl N-[(3R,4S)-1-(2-chloro-5-cyano-3-{[7-cyano-4-(cyclopropylamino)imidazo [2,1-f][1,2,4]triazin-2-yl]amino}phenyl)-3-[(2-hydroxy-2-methylpropyl)(methyl)amino]piperidin-4-yl] carbamate]: the IC50 worked out at 18.1 nM.
To `CCNc1nc(Nc2cc(C#N)cc(N3CC[C@@H](NC(=O)OC)[C@@H](N(C)C(C)C(N)=O)C3)c2Cl)nn2c(C#N)cnc12` (stereo in doubt) [Example 769, methyl N-[(3S,4R)-3-{[(1S)-1-carbamoylethyl](methyl)amino}-1-(2-chloro-5-cyano-3-{[7-cyano-4-(ethylamino)imidazo[2,1-f][1,2,4]triazin-2-yl]amino}phenyl)piperidin-4-yl]carbamate] belongs 3 nM; to `CN1CCN(c2cc(C#N)cc(Nc3nc(NC4CC4)c4ncc(C#N)n4n3)c2Cl)CC1` [Example 1, 2-((2-chloro-5-cyano-3-(4-methyl-1-piperazinyl)phenyl)amino)-4-(cyclopropylamino)imidazo[2,1-f][1,2,4]triazine-7-carbonitrile], 0.9 nM; to `Cn1cnc2cc(Nc3nc(NC4CC4)c4ncc(C#N)n4n3)ccc21` [Example 3, 4-(cyclopropylamino)-2-((1-methyl-1H-benzimidazol-5-yl)amino)imidazo[2,1-f][1,2,4]triazine-7-carbonitrile], 0.42 nM.
In the case of `CS(=O)(=O)N1CCN(c2cc(C#N)cc(Nc3nc(NC4CC4)c4ncc(C#N)n4n3)c2Cl)CC1` [Example 4, 2-((2-chloro-5-cyano-3-(4-(methylsulfonyl)-1-piperazinyl)phenyl)amino)-4-(cyclopropylamino)imidazo [2,1-f][1,2,4]triazine-7-carbonitrile], the IC50 came out at 0.64 nM.
To `CN1C[C@H]2C[C@@H]1CN2c1cc(C#N)cc(Nc2nc(NC3CC3)c3ncc(C#N)n3n2)c1Cl` [Example 5, 2-((2-chloro-5-cyano-3-((1R,4R)-5-methyl-2,5-diazabicyclo[2.2.1]hept-2-yl)phenyl)amino)-4-(cyclopropylamino)imidazo [2,1-f][1,2,4]triazine-7-carbonitrile] belongs 0.44 nM; to `N#Cc1cc(Nc2nc(NC3CC3)c3ncc(C#N)n3n2)c(Cl)c(N2CCN3CCC2C3)c1` (stereo not shown) [Example 8, 2-((2-chloro-5-cyano-3-(1,4-diazabicyclo[3.2.1]oct-4-yl)phenyl)amino)-4-(cyclopropylamino)imidazo [2,1-f][1,2,4]triazine-7-carbonitrile], 0.53 nM; to `CN1CCN(C2CCN(c3cc(C#N)cc(Nc4nc(NC5CC5)c5ncc(C#N)n5n4)c3Cl)CC2)CC1` [Example 12, 2-((2-chloro-5-cyano-3-(4-(4-methyl-1-piperazinyl)-1-piperidinyl)phenyl)amino)-4-(cyclopropylamino)imidazo [2,1-f][1,2,4]triazine-7-carbonitrile], 1.15 nM.
As for `COC(=O)N[C@@H]1C[C@@H]2CN(c3cc(C#N)cc(Nc4nc(NC5CC5)c5ncc(C#N)n5n4)c3Cl)C[C@@H]2C1` [Example 13, (+/−) methyl ((3aR,5r,6aS)-2-(2-chloro-5-cyano-3-((7-cyano-4-(cyclopropylamino)imidazo [2,1-f][1,2,4]triazin-2-yl)amino)phenyl)octahydro-cyclopenta[c]pyrrol-5-yl)carbamate], the IC50 came to 1.7 nM.
To `COC(=O)N[C@H]1CN(c2cc(C#N)cc(Nc3nc(NC4CC4)c4ncc(C#N)n4n3)c2Cl)C[C@H]1OC` [Example 14, methyl ((3S,4R)-1-(2-chloro-5-cyano-3-((7-cyano-4-(cyclopropylamino)imidazo [2,1-f][1,2,4]triazin-2-yl)amino)phenyl)-4-methoxy-3-pyrrolidinyl)carbamate] belongs 0.7 nM; to `CN1CCC(N2CCN(c3cc(C#N)cc(Nc4nc(NC5CC5)c5ncc(C#N)n5n4)c3Cl)CC2)CC1` [Example 15, 2-((2-chloro-5-cyano-3-(4-(1-methyl-4-piperidinyl)-1-piperazinyl)phenyl)amino)-4-(cyclopropylamino)imidazo [2,1-f][1,2,4]triazine-7-carbonitrile], 1.98 nM.
To `CC(C)(O)C1CCN(c2cc(C#N)cc(Nc3nc(NC4CC4)c4ncc(C#N)n4n3)c2Cl)CC1` [Example 16, 2-((2-chloro-5-cyano-3-(4-(1-hydroxy-1-methylethyl)-1-piperidinyl)phenyl)amino)-4-(cyclopropylamino)imidazo [2,1-f][1,2,4]triazine-7-carbonitrile] belongs 1 nM; to `CC1(N)CCN(c2cc(C#N)cc(Nc3nc(NC4CC4)c4ncc(C#N)n4n3)c2Cl)CC1` [Example 18, 2-((3-(4-amino-4-methyl-1-piperidinyl)-2-chloro-5-cyanophenyl)amino)-4-(cyclopropylamino)imidazo [2,1-f][1,2,4]triazine-7-carbonitrile], 0.55 nM.
As to `CN1CCC2(CC1)CN(c1cc(C#N)cc(Nc3nc(NC4CC4)c4ncc(C#N)n4n3)c1Cl)C2` [Example 22, 2-((2-chloro-5-cyano-3-(7-methyl-2,7-diazaspiro[3.5]non-2-yl)phenyl)amino)-4-(cyclopropylamino)imidazo [2,1-f][1,2,4]triazine-7-carbonitrile], the IC50 was 0.68 nM.
To `C[C@@H]1CN(c2cc(C#N)cc(Nc3nc(NC4CC4)c4ncc(C#N)n4n3)c2Cl)C[C@H](C)N1C` [Example 24, (+/−) 2-((2-chloro-5-cyano-3-((3R,5S)-3,4,5-trimethyl-1-piperazinyl)phenyl)amino)-4-(cyclopropylamino)imidazo [2,1-f][1,2,4]triazine-7-carbonitrile] belongs 1 nM.
To `CN1CCCN(C2CN(c3cc(C#N)cc(Nc4nc(NC5CC5)c5ncc(C#N)n5n4)c3Cl)C2)CC1` [Example 29, 2-((2-chloro-5-cyano-3-(3-(4-methyl-1,4-diazepan-1-yl)-1-azetidinyl)phenyl)amino)-4-(cyclopropylamino)imidazo [2,1-f][1,2,4]triazine-7-carbonitrile] belongs 0.31 nM.
To `CO[C@@H]1CN(c2cc(C#N)cc(Nc3nc(NC4CC4)c4ncc(C#N)n4n3)c2Cl)C[C@@H]1N` [Example 30, 2-((3-((3S,4R)-3-amino-4-methoxy-1-pyrrolidinyl)-2-chloro-5-cyanophenyl)amino)-4-(cyclopropylamino)imidazo [2,1-f][1,2,4]triazine-7-carbonitrile] belongs 0.92 nM.
